PMC8121805, “Discovery of first-in-class inhibitors of ASH1L histone methyltransferase with anti-leukemic activity” (Nature Communications, 2021)
Values joined by “and” are separate entries in the source; they are usually repeats but may differ in a detail not shown here. Identical values can stand only once.

Assays:
K562 cells = assay: Annexin V apoptosis assay (flow cytometry); type: cell-based, human; details: for K562 % Annexin V/PI+ cells: 7 days
MV4;11 cells = assay: RNA-seq global gene expression; type: cell-based, human
Protocol: Total RNA was prepared from cells collected after 7 days of treatment using RNeasy Mini Kit (74106, Qiagen). 2 µg of total RNA for each sample, as quantified using Nanodrop 2000 UV-Vis spectrophotometer, was submitted to the Next-Generation Sequencing Services of the University of Michigan for RNA Sequencing on the Illumina NovaSeq (S4) Sequencer. ERCC RNA Spike-In Mix (4456740, Invitrogen™) was provided to control for variability in RNA expression.
For analysis of RNA-seq data, Fastq generation was performed using Illumina’s bcl2fastq2 software (v2.17). The cutadapt [https://cutadapt.readthedocs.org/en/stable/] and FastQC [http://www.bioinformatics.babraham.ac.uk/projects/fastqc/] tools wrapped in Trim Galore [http://www.bioinformatics.babraham.ac.uk/projects/trim_galore/] were used to trim low quality bases (Q < 20) and adapter for raw sequences. Reads with length <20 bp were removed after trimming. […] Duplicated reads for pair-end data were removed by SAMtools (v1.5)[41]. Aligned reads were assembled using Cufflinks (v2.2.1) and assembled transcriptome catalog was used as an input for Cuffdiff2[42] to determine gene expression levels (FPKM, Fragments Per Kilobase per Million mapped reads) and differential expression between conditions using default options. Genes with p < 0.05 and fold-change >2 up or down were considered as differentially expressing genes to prepare the Volcano plot, which was generated using the “ggplot2” R package. Gene set analysis was performed and enrichment plots were generated using the “fgsea” package, with the test statistic generated by Cuffdiff2 used to rank genes for gene set enrichment analysis. Fgsea was run using the C2, C5, and C6 curated datasets from MSigDB[44]. Heatmaps for the top 20 ranked genes in the Leading Edge from a given enrichment analysis were generated with the “gplots” package [https://cran.r-project.org/web/packages/gplots/index.html].

[1] = Effect on normal hematopoiesis: flow cytometry of myeloid, B- and T-cells in blood; type: in vivo
From the text: width, MPV – Mean platelet volume). n = 9 mice / group. Mean +/- SD. b) Flow cytometry analysis […]
assess the effect on myeloid, B- and T-cells. Statistical significance calculated us ing unpaired 2-tailed t-test. n = 9 mice / group. Mean +/- SD. ns - not significant. (c) Representative gating strategy corresponding to the Supplementary Figure 12b for quantification of myeloid, B- and T-cells in blood samples of mice treated with vehicle or AS-99. SSC-A – side scatter area; FSC-A – forward scatter area; FSC-H – forward scatter height.

EZH2 = EZH2 (Homo sapiens, UniProt Q15910); assay: HMT selectivity panel; details: EZH2, 50 µM compound
EZH2, sequence (Q15910 whole entry, species assumed): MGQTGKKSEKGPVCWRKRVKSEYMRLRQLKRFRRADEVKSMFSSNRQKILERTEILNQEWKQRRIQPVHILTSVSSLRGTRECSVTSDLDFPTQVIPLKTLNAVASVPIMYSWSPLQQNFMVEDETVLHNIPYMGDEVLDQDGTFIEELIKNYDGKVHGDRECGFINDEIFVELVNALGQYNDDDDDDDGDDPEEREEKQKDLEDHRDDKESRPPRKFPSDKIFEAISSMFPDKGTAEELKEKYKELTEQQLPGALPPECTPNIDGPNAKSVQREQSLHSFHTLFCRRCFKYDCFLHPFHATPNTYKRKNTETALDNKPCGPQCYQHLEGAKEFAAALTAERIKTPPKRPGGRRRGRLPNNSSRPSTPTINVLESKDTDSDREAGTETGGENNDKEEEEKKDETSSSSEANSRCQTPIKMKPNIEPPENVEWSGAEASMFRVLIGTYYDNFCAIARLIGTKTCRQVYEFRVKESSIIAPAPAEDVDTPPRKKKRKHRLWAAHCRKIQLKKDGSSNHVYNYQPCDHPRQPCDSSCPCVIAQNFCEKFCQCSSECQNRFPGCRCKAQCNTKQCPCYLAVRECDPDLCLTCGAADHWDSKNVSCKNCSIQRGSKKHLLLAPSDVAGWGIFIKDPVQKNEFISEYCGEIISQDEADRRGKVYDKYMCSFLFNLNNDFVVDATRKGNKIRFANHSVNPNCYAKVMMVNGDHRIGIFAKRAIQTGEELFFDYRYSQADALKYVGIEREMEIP
EZH2, sequence (O75530 whole entry partner, species assumed): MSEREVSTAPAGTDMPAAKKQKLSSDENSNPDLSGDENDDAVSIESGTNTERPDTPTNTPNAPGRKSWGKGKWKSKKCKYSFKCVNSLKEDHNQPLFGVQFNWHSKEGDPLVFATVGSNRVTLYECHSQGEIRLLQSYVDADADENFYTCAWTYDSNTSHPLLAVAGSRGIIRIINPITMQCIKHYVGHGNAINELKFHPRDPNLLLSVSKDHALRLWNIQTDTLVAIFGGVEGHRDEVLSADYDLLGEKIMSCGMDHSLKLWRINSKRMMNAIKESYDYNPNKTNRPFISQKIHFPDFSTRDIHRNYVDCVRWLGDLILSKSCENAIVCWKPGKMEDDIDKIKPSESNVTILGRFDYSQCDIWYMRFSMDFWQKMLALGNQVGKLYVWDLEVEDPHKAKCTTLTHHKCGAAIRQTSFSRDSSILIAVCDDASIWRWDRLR
EZH2, sequence (Q15022 whole entry partner, species assumed): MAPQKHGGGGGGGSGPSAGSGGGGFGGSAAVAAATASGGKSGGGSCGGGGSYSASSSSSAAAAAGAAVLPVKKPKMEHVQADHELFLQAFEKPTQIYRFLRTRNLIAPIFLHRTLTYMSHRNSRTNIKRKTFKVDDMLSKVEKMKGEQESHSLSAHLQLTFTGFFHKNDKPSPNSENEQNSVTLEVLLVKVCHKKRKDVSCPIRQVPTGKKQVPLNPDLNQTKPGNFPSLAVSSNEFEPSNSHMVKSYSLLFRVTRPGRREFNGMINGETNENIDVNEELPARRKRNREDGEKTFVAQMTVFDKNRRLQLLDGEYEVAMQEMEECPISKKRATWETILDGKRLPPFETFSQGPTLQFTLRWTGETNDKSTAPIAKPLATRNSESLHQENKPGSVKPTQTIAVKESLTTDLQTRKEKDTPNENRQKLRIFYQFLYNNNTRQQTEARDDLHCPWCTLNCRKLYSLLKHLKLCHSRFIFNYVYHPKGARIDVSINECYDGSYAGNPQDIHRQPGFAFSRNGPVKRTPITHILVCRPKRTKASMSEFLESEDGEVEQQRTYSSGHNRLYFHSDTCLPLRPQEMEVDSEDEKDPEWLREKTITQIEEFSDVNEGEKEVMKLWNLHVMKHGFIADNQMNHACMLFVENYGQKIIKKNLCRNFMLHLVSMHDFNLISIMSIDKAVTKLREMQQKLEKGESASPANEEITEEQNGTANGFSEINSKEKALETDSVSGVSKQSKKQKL
Protocol: (§1) mM DTT and 0.01% Triton X-100 was used in experiments containing core histone.
experiments containing nucleosome.
G9a 5 core histone 0.05 mg/mL 1
GLP 5 core histone 0.05 mg/mL 1

MLL1 = MLL1 (Homo sapiens, UniProt Q03164); assay: HMT selectivity panel; details: MLL1, 50 µM compound
From the text: as §1

MLL4 = assay: HMT selectivity panel; details: MLL4, 50 µM compound
From the text: as §1

PRMT1 = PRMT1 (Homo sapiens, UniProt Q99873); assay: HMT selectivity panel; details: PRMT1, 50 µM compound
PRMT1, sequence (Q99873 whole entry, species assumed): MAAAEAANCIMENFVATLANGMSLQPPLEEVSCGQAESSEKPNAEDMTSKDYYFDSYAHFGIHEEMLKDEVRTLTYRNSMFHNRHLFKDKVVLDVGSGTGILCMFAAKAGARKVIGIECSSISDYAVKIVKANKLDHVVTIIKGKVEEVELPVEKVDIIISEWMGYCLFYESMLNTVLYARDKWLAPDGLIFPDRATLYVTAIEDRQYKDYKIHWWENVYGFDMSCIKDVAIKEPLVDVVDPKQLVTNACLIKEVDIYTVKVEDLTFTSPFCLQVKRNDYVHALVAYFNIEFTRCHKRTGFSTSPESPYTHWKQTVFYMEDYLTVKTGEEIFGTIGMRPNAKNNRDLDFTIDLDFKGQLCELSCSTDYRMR
From the text: as §1

SMYD2 = SMYD2 (Homo sapiens, UniProt Q9NRG4); assay: HMT selectivity panel; details: SMYD2, 50 µM compound
SMYD2, sequence (Q9NRG4 whole entry, species assumed): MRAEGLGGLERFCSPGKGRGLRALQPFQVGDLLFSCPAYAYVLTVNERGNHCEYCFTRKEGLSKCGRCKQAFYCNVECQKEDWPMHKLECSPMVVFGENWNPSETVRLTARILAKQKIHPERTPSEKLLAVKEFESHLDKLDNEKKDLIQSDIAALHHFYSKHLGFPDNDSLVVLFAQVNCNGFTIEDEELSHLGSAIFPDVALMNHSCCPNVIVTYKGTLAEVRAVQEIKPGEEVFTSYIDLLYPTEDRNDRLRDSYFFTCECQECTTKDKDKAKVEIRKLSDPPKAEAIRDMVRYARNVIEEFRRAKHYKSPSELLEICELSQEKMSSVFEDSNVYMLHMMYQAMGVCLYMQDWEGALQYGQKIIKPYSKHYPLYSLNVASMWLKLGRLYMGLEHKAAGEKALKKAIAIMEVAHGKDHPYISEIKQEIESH
From the text: Assay conditions for selectivity experiments with a panel of histone
as §1

[2] = Body weight during treatment in the MV4;11 model
Protocol: Briefly, the 8- to 10-week old female NSG mice (Jackson Laboratory) were intravenously injected with 5 × 10^6 luciferase-expressing MV4;11 cells (received from Dr. Thomas Look, Dana Farber Cancer Institute). […] For imaging, mice were kept anesthetized with isoflurane, and 50 mg/kg luciferin (E1603, Promega) was administered by intraperitoneal injection. Photonic emission was imaged using the in Vivo Imaging System BLI (IVIS, 200) with total imaging time of 10 s for each mouse.
Measurements are reference to the values obtained at the first day of treatment, which were set as

[3] = RNA-seq, MV4;11, 3 µM, seven days
[4] = Fig S12b, individual mice, AS-99 group
[5] = normal mice, 30 mg/kg, i.p., q.d., 14 days
[6] = female, CD-1, mouse, plasma, other: i.v. and i.p.

Protocol for PK studies in mice: The LC-MS/MS method consisted of a Shimadzu UFLC 20 A system and chromatographic separation of test compound was achieved using Waters XBridge C18 column (5 cm × 2.1 mm, 3.5 µm). An AB Sciex QTrap 5500 mass spectrometer equipped with an electrospray ionization source (ABI-Sciex, Toronto, Canada) in the positive-ion multiple reaction monitoring (MRM) mode was used for detection. All pharmacokinetic parameters were calculated by noncompartmental methods using WinNonlin® version 3.2 (Pharsight Corporation, Mountain View, CA, USA). Parameters are presented as a mean ± standard deviation (SD).
CL (clearance), AUC (area under the curve),
Cmax (maximum concentration achieved), Tmax (time at which maximum concentration was
achieved), were calculated by noncompartmental methods using WinNonlin® software version

In the case of `CN1CC(C(=O)NCc2ccc3c(-c4cccc(C(N)=S)c4)cn(C4CCN(S(=O)(=O)C(F)(F)F)CC4)c3c2)C1` [AS-99], the “apoptosis in K562 cells” value (K562 cells) was “not in the K562 cells”, the “K562 % Annexin V/PI+ cells” value (K562 cells; 2 uM) was 10.85% and 7.41% and 3.78% and the “K562 % Annexin V/PI+ cells” value (K562 cells; 4 uM) was 7.07% and 5.34% and 5.33%. For the same compound, the “K562 % Annexin V/PI+ cells” value (K562 cells; 6 uM) was 4.92% and 4.78% and 6.63%, the “K562 % Annexin V/PI+ cells” value (K562 cells; 8 uM) was 5.64% and 10.26% and 7.32% and the “GSEA: transcriptional programs driven by MLL fusion proteins and HOXA9” value (MV4;11 cells; MV4;11) was “downregulation of transcriptional programs driven by MLL fusion proteins and HOXA9”. For the same compound, the “number of downregulated genes” value (MV4;11 cells; [3]) was 323, the “number of up-regulated genes” value (MV4;11 cells; [3]) was 75 and the B cells [1, 4] was 42.2% and 44% and 40.1% and 47.1% and 47.9% and 45.4% and 35.4% and 37.2% and 39.4%. The Myeloid cells [1, 4] was 16.7% and 17.1% (2×) and 23.3% and 12.6% and 14.8% and 9.84% and 22.2% and 17.7%, the T cells [1, 4] was 27.1% and 24.3% and 22.5% and 18.4% and 27% and 27.8% and 32.5% and 30% and 29.5% and the T-cells [1, 5] was “unaffected”. The “myeloid and B-cells” value [1, 5] was “slightly changed (increased and reduced, respectively)”, the AUC (PK studies in mice; female, CD-1, mouse, plasma, ip, 30 mg/kg) was 10700 ng·h/mL and the concentration at 0.167 h (PK studies in mice; female, CD-1, mouse, plasma, ip, 30 mg/kg, blood plasma level of AS-99, i.p., time 0.167 h) was 9800 nM. It also gave a concentration at 0.25 h (PK studies in mice; female, CD-1, mouse, plasma, ip, 30 mg/kg, blood plasma level of AS-99, i.p., time 0.25 h) of 9110 nM, a concentration at 0.5 h (PK studies in mice; female, CD-1, mouse, plasma, ip, 30 mg/kg, blood plasma level of AS-99, i.p., time 0.5 h) of 6580 nM and a concentration at 1 h (PK studies in mice; female, CD-1, mouse, plasma, ip, 30 mg/kg, blood plasma level of AS-99, i.p., time 1 h) of 6110 nM. For the same compound, the concentration at 2 h (PK studies in mice; female, CD-1, mouse, plasma, ip, 30 mg/kg, blood plasma level of AS-99, i.p., time 2 h) was 2760 nM, the concentration at 4 h (PK studies in mice; female, CD-1, mouse, plasma, ip, 30 mg/kg, blood plasma level of AS-99, i.p., time 4 h) was 840 nM and the concentration at 7 h (PK studies in mice; female, CD-1, mouse, plasma, ip, 30 mg/kg, blood plasma level of AS-99, i.p., time 7 h) was 300 nM. It also gave a concentration at 16 h (PK studies in mice; female, CD-1, mouse, plasma, ip, 30 mg/kg, blood plasma level of AS-99, i.p., time 16 h) of 84 nM, a concentration at 24 h (PK studies in mice; female, CD-1, mouse, plasma, ip, 30 mg/kg, blood plasma level of AS-99, i.p., time 24 h) of 33.7 nM and an AUC (PK studies in mice; female, CD-1, mouse, plasma, iv, 15 mg/kg) of 9700 ng·h/mL. For the same compound, the concentration at 0.083 h (PK studies in mice; female, CD-1, mouse, plasma, iv, 15 mg/kg, blood plasma level of AS-99, i.v., time 0.083 h) was 25800 nM, the concentration at 0.167 h (PK studies in mice; female, CD-1, mouse, plasma, iv, 15 mg/kg, blood plasma level of AS-99, i.v., time 0.167 h) was 10200 nM and the concentration at 0.25 h (PK studies in mice; female, CD-1, mouse, plasma, iv, 15 mg/kg, blood plasma level of AS-99, i.v., time 0.25 h) was 6620 nM. It also gave a concentration at 0.5 h (PK studies in mice; female, CD-1, mouse, plasma, iv, 15 mg/kg, blood plasma level of AS-99, i.v., time 0.5 h) of 5200 nM, a concentration at 1 h (PK studies in mice; female, CD-1, mouse, plasma, iv, 15 mg/kg, blood plasma level of AS-99, i.v., time 1 h) of 1780 nM and a concentration at 2 h (PK studies in mice; female, CD-1, mouse, plasma, iv, 15 mg/kg, blood plasma level of AS-99, i.v., time 2 h) of 854 nM. It also gave a concentration at 4 h (PK studies in mice; female, CD-1, mouse, plasma, iv, 15 mg/kg, blood plasma level of AS-99, i.v., time 4 h) of 268 nM, a concentration at 7 h (PK studies in mice; female, CD-1, mouse, plasma, iv, 15 mg/kg, blood plasma level of AS-99, i.v., time 7 h) of 126 nM and a concentration at 16 h (PK studies in mice; female, CD-1, mouse, plasma, iv, 15 mg/kg, blood plasma level of AS-99, i.v., time 16 h) of 24.7 nM. It also gave a concentration at 24 h (PK studies in mice; female, CD-1, mouse, plasma, iv, 15 mg/kg, blood plasma level of AS-99, i.v., time 24 h) of 15.1 nM, a Cmax (PK studies in mice; [6]) greater than 10000 nM and a half-life (PK studies in mice; [6]) of 5 to 6 h. For the same compound, the “blood plasma level of AS-99” value (PK studies in mice; i.p., time 0.167 h) was 8805 nM and 7458 nM, the “blood plasma level of AS-99” value (PK studies in mice; i.p., time 0.25 h) was 6902 nM and 8721 nM and the “blood plasma level of AS-99” value (PK studies in mice; i.p., time 0.5 h) was 6683.5 nM and 5152 nM. The “blood plasma level of AS-99” value (PK studies in mice; i.p., time 1 h) was 5269 nM and 5185 nM, the “blood plasma level of AS-99” value (PK studies in mice; i.p., time 2 h) was 3266 nM and 1801 nM and the “blood plasma level of AS-99” value (PK studies in mice; i.p., time 4 h) was 1054 nM and 710.4 nM. For the same compound, the “blood plasma level of AS-99” value (PK studies in mice; i.p., time 7 h) was 351.9 nM and 247.5 nM, the “blood plasma level of AS-99” value (PK studies in mice; i.p., time 16 h) was 71.89 nM and 86.7 nM and the “blood plasma level of AS-99” value (PK studies in mice; i.p., time 24 h) was 43.77 nM and 41.41 nM. The “blood plasma level of AS-99” value (PK studies in mice; i.v., time 0.083 h) was 37878.8 nM, the “blood plasma level of AS-99” value (PK studies in mice; i.v., time 0.167 h) was 7643.1 nM and the “blood plasma level of AS-99” value (PK studies in mice; i.v., time 0.25 h) was 5774 nM. The “blood plasma level of AS-99” value (PK studies in mice; i.v., time 0.5 h) was 4798 nM, the “blood plasma level of AS-99” value (PK studies in mice; i.v., time 1 h) was 2559 nM and the “blood plasma level of AS-99” value (PK studies in mice; i.v., time 2 h) was 611.1 nM. For the same compound, the “blood plasma level of AS-99” value (PK studies in mice; i.v., time 4 h) was 217.2 nM, the “blood plasma level of AS-99” value (PK studies in mice; i.v., time 7 h) was 94.11 nM and the “blood plasma level of AS-99” value (PK studies in mice; i.v., time 16 h) was 29.8 nM. The “blood plasma level of AS-99” value (PK studies in mice; i.v., time 24 h) was 15.32 nM, the activity at 50 µM (EZH2) was 101% and the “% activity” value (EZH2; 50 µM) was 119.029%. For the same compound, the activity at 50 µM (MLL1) was 50%, the “% activity” value (MLL1; 50 µM) was 69.7738% and the “% activity” value (MLL4) was 79.3828% and 71.6922%. For the same compound, the activity at 50 µM (PRMT1) was 122%, the “% activity” value (PRMT1; 50 µM) was 110.616% and the “% activity” value (SMYD2) was 79.4042% and 102.085%. For the same compound, the “toxicity during the treatment period” value ([2]; 30 mg/kg, i.p., q.d., 14 days) was “No substantial toxicity”, the body weight reduction ([2]; after 7 days of treatment, 30 mg/kg, i.p., q.d.) was ~ 10% and the “normalized body weight change” value ([2]; days of treatment 1) was 100. The “normalized body weight change” value ([2]; days of treatment 2) was 95 and 98 and 97 and 96, the “normalized body weight change” value ([2]; days of treatment 3) was 94 and 98 and 96 and 99 and 95 and 102 and the “normalized body weight change” value ([2]; days of treatment 4) was 95 and 96 and 97 and 100. The “normalized body weight change” value ([2]; days of treatment 5) was 95 and 89 and 93 and 87 and 100, the “normalized body weight change” value ([2]; days of treatment 6) was 90 and 100 and 94 and 87 and 93 and the “normalized body weight change” value ([2]; days of treatment 7) was 85 and 89 and 87 and 94. For the same compound, the “normalized body weight change” value ([2]; days of treatment 9) was 91 and 93 and 95 and 87 and 90, the “normalized body weight change” value ([2]; days of treatment 10) was 91 and 98 and 96 and 89 and 95 and 87 and the “normalized body weight change” value ([2]; days of treatment 11) was 91 and 96 and 94 and 97 and 100 and 99 and 89. For the same compound, the “normalized body weight change” value ([2]; days of treatment 12) was 95 and 103 and 87 and 88 and the “normalized body weight change” value ([2]; days of treatment 13) was 89 and 95 and 94 and 96 and 105 and 90.
